In this test the test system is HCV replicon. Nature of the test: Cell-Based HCV Replicon Assay. Particulars: Hepatitis C virus, 72 h; Table IV; replicon cells, day 3, real time PCR; EC90 = concentration for ΔCT=3.2 over baseline; read-out: EC90. The procedure:
Cell-Based HCV Replicon Assay
To measure cell-based anti-HCV activity of the compounds of the present invention, replicon cells were seeded at 5000 cells/well in 96-well collagen I-coated Nunc plates in the presence of the compound of the invention. Various concentrations of a compound of the invention, typically in 10 serial 2-fold dilutions, were added to the assay mixture, the starting concentration of the compound ranging from 25 μM to 1 μM. The final concentration of DMSO was 0.5%, fetal bovine serum was 10%, in the assay media. Cells were harvested on day 3 by the addition of 1× cell lysis buffer (Ambion cat #8721). The replicon RNA level was measured using real time PCR (Taqman assay). The amplicon was located in 5B. The PCR primers were: 5B.2F, ATGGACAGGCGCCCTGA; 5B.2R, […]; the probe sequence was FAM-labeled CACGCCATGCGCTGCGG. GAPDH RNA was used as endogenous control and was amplified in the same reaction as NS5B (multiplex PCR) using primers and VIC-labeled probe recommended by the manufacturer (PE Applied Biosystem). The real-time RT-PCR reactions were run on ABI PRISM® 7900HT Sequence Detection System using the following program: 48′C for 30 min, 95′C for 10 min, 40 cycles of 95′C for 15 sec, 60′C for 1 min. The ΔCT values (CT5B-CTGAPDH) were plotted against the concentration of test compound and fitted to the sigmoid dose-response model using Graph Pad PRISM® software. EC50 was defined as the concentration of inhibitor necessary to achieve ΔCT=1 over the projected baseline; EC90 the concentration necessary to achieve ΔCT=3.2 over the baseline. Alternatively, to quantitate the absolute amount of replicon RNA, a standard curve was established by including serially diluted T7 transcripts of replicon RNA in the Taqman assay. All Taqman reagents were from PE Applied Biosystems. Such an assay procedure was described in detail in e.g. Malcolm et al., Antimicrobial Agents and Chemotherapy 50: 1013-1020 (2006).
HCV Replicon assay data for compounds of the invention that were tested were obtained using the above method.
Background: A replicon is a self-replicating genome or part of one, used to study replication in cells.
For orientation: EC90 means the concentration needed for an effect of 90%. As for `CCOc1cc2cc(-c3c(C)nc(NCC4CC4)nc3N[C@@H]3C[C@H](C(C)(C)O)[C@@H](O)[C@H]3O)oc2c(C)n1` [Example 2511], the EC90 came to 130 nM.

For the compound `CO[C@H](C)CNc1nc(C)c(-c2nc3c(C)nccc3s2)c(N[C@@H]2C[C@H](C(C)(C)O)[C@@H](O)[C@H]2O)n1` [Example 3030], the EC90 amounted to 104 nM.

Take `CO[C@@H](C)CNc1nc(C)c(-c2nc3c(C)nccc3s2)c(N[C@@H]2C[C@H](C(C)(C)O)[C@@H](O)[C@H]2O)n1` [Example 3031]: the EC90 was found to be 104 nM.

On to `Cc1nc(NCC2CC2)nc(N[C@@H]2C[C@H](C(F)F)[C@@H](O)[C@H]2O)c1-c1nc2c(C)nccc2s1` [Example 3036], for which the 90% effect concentration (EC90) turned out to be 44 nM.

On to `Cc1nc(NCC2CC2)nc(N[C@@H]2C[C@H](C(C)(F)F)[C@@H](O)[C@H]2O)c1-c1nc2c(C3CC3)nccc2s1` [Example 3056], for which the EC90 is 7 nM.

Turning to `COC[C@@H](C)Nc1nc(C)c(-c2nc3c(C)nccc3s2)c(N[C@@H]2C[C@H](C(C)(C)O)[C@@H](O)[C@H]2O)n1` [Example 3137], the EC90 turned out to be 118 nM.

For `CCC(O)(CC)[C@H]1C[C@@H](Nc2nc(NCC3CC3)nc(C)c2-c2nc3c(C)nccc3s2)[C@H](O)[C@@H]1O` [Example 3182], the EC90 stood at 68 nM.

For the compound `Cc1nc(NCc2c(F)cc(F)cc2F)nc(N[C@@H]2C[C@H](C(C)(C)O)[C@@H](O)[C@H]2O)c1-c1nc2c(C)nccc2s1` [Example 3188], the EC90 turned out to be 21 nM.

Turning to `Cc1nc(NCC2CC(F)(F)C2)nc(N[C@@H]2C[C@H](C(C)(C)O)[C@@H](O)[C@H]2O)c1-c1nc2c(C)nccc2s1` [Example 3239], the EC90 worked out at 10 nM.

With `Cc1cc2sc(-c3c(C)nc(NCc4c(F)cc(F)cc4F)nc3N[C@@H]3C[C@H](CO)[C@@H](O)[C@H]3O)nc2c(C)n1` [Example 3438], the EC90 came out at 11 nM.

For `Cc1nc(NC2CCC2)nc(N[C@@H]2C[C@H](CS(C)(=O)=O)[C@@H](O)[C@H]2O)c1-c1nc2c(C3CC3)nccc2s1` [Example 3513], the EC90 is 54 nM.

Turning to `Cc1nc(NCc2c(F)cccc2F)nc(N[C@@H]2C[C@H](CS(C)(=O)=O)[C@@H](O)[C@H]2O)c1-c1nc2c(C3CC3)nccc2s1` [Example 3538], the EC90 turned out to be 7 nM.

Turning to `Cc1nc(NCC2CC2)nc(N[C@@H]2C[C@H](CC(C)(C)O)[C@@H](O)[C@H]2O)c1-c1nc2c(C)nccc2s1` [Example 3552], the EC90 is 24 nM.

Turning to `Cc1nc(N[C@H](C)C2CC2)nc(N[C@@H]2C[C@H](CCO)[C@@H](O)[C@H]2O)c1-c1nc2c(C)nccc2s1` [Example 3561], the EC90 was 23 nM.

As for `Cc1nc(NCc2c(F)cc(F)cc2F)nc(N[C@@H]2C[C@H](CS(C)(=O)=O)[C@@H](O)[C@H]2O)c1-c1nc2c(C3CC3)nccc2s1` [Example 3563], the EC90 turned out to be 3 nM.

Regarding `Cc1nc(NCc2c(F)cccc2F)nc(N[C@@H]2C[C@H](CC#N)[C@@H](O)[C@H]2O)c1-c1nc2c(C3CC3)nccc2s1` [Example 3569], the EC90 stood at 16 nM.

As for `Cc1nc(NCC2CC2)nc(N[C@@H]2C[C@H](CS(=O)(=O)c3ccncc3)[C@@H](O)[C@H]2O)c1-c1nc2c(C)nccc2s1` [Example 3580], the EC90 was determined as 12 nM.

`CCOCCNc1nc(C)c(-c2nc3c(C4CC4)nccc3s2)c(N[C@@H]2C[C@H](CS(=O)(=O)CC)[C@@H](O)[C@H]2O)n1` [Example 3721]: the 90% effect concentration (EC90) is 24 nM.

On to `Cc1nc(NCC2CC2)nc(N[C@@H]2C[C@H](CS(=O)(=O)c3ccccc3)[C@@H](O)[C@H]2O)c1-c1nc2c(C3CC3)nccc2s1` [Example 3744], for which the concentration for an effect of 90% (EC90) stood at 44 nM.

Regarding `Cc1nc(NCc2c(F)cccc2F)nc(N[C@@H]2C[C@H](CS(=O)(=O)c3cc(F)cc(F)c3)[C@@H](O)[C@H]2O)c1-c1nc2c(C)nccc2s1` [Example 3754], the concentration for an effect of 90% (EC90) worked out at 15 nM.

As to `CCNC(=O)C(O)[C@H]1C[C@@H](Nc2nc(N[C@H](C)COCC)nc(C)c2-c2nc3c(C)nccc3s2)[C@H](O)[C@@H]1O` (stereo partly drawn) [Example 4025], the EC90 stood at 8 nM.
